Source: US9340590B2 (priority 2011, dated 2016)
Read-outs that look alike come from different tables or passages of the source. Positions of bridges follow the written chain, without caps; N, C: chain ends. Non-standard residues stand in square brackets, D forms with d. Residues, ends and D or L forms follow the SMILES beside them. Phe(4-COOH) = N[C@@H](Cc1ccc(C(=O)O)cc1)C(=O)O; NMeW = CN[C@@H](Cc1c[nH]c2ccccc12)C(=O)O; NMeF = CN[C@@H](Cc1ccccc1)C(=O)O; 2Pal = N[C@@H](Cc1ccccn1)C(=O)O; Cha = N[C@@H](CC1CCCCC1)C(=O)O

Assays:
Test in all cases: cell-based
[1] = molecular target: hNav1.7 (Homo sapiens, UniProt Q15858); type: cell-based; conditions: IonWorks Quattro, use, […], read-out: IWQ Use Nav1.7
[2] = molecular target: hNav1.5 (Homo sapiens, UniProt Q14524); conditions: IonWorks Quattro, use, […], read-out: IWQ Use Nav1.5
Sequence of hNav1.5 (Q14524 whole entry, looked up): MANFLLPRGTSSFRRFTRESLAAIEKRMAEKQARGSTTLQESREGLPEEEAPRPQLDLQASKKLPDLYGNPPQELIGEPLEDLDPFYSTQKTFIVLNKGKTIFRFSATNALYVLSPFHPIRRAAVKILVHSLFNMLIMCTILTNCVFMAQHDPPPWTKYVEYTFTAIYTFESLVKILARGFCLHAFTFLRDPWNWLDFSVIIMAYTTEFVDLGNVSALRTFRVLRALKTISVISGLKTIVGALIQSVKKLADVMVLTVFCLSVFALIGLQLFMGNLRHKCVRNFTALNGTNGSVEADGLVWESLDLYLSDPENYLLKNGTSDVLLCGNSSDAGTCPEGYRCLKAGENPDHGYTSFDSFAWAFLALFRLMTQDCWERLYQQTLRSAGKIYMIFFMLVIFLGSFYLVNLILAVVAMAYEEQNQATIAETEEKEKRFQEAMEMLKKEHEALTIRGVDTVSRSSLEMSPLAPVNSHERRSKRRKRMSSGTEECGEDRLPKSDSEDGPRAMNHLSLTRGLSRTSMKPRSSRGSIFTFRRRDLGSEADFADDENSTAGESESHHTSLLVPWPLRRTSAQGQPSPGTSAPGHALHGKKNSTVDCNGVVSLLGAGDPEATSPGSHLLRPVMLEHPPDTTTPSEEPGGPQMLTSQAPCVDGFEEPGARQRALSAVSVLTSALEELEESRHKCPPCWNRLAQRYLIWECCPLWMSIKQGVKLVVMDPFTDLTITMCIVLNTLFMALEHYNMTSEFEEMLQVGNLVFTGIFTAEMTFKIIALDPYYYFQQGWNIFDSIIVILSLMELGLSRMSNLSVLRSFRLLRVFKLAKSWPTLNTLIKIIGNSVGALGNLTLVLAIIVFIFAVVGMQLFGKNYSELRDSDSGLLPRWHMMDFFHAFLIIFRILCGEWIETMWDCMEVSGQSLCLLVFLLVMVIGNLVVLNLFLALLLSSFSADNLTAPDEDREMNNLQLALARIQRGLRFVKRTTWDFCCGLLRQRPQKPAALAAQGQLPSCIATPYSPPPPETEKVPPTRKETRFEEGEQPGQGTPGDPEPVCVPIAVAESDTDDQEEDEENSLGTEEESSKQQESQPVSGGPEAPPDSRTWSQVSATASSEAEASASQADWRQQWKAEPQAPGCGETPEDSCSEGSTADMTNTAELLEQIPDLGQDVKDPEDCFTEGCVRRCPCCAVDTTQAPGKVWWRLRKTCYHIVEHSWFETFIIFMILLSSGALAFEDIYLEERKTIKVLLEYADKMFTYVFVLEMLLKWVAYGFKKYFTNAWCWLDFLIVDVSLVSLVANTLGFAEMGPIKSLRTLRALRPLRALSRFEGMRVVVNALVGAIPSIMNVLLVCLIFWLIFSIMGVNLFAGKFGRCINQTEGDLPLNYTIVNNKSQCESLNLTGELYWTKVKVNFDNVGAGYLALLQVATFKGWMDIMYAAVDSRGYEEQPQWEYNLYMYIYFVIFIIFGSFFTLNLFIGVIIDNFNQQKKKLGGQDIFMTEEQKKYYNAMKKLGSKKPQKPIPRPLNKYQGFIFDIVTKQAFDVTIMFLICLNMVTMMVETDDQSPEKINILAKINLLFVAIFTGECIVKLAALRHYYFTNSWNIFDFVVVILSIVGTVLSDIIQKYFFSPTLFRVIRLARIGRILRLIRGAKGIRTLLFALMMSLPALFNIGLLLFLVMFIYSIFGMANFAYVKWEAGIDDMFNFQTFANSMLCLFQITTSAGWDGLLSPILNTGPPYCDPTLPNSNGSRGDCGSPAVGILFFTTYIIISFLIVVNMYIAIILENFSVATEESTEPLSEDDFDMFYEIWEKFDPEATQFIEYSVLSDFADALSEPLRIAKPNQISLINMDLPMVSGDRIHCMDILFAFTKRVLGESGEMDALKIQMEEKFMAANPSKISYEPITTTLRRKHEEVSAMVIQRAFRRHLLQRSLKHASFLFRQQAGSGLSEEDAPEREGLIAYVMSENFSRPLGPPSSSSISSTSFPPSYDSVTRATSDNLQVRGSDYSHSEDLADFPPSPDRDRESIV

[3] = molecular target: hNav1.3 (Homo sapiens, UniProt Q9NY46); conditions: IonWorks Quattro, use, […], read-out: IWQ Use Nav1.3
Sequence of hNav1.3 (Q9NY46 whole entry, looked up): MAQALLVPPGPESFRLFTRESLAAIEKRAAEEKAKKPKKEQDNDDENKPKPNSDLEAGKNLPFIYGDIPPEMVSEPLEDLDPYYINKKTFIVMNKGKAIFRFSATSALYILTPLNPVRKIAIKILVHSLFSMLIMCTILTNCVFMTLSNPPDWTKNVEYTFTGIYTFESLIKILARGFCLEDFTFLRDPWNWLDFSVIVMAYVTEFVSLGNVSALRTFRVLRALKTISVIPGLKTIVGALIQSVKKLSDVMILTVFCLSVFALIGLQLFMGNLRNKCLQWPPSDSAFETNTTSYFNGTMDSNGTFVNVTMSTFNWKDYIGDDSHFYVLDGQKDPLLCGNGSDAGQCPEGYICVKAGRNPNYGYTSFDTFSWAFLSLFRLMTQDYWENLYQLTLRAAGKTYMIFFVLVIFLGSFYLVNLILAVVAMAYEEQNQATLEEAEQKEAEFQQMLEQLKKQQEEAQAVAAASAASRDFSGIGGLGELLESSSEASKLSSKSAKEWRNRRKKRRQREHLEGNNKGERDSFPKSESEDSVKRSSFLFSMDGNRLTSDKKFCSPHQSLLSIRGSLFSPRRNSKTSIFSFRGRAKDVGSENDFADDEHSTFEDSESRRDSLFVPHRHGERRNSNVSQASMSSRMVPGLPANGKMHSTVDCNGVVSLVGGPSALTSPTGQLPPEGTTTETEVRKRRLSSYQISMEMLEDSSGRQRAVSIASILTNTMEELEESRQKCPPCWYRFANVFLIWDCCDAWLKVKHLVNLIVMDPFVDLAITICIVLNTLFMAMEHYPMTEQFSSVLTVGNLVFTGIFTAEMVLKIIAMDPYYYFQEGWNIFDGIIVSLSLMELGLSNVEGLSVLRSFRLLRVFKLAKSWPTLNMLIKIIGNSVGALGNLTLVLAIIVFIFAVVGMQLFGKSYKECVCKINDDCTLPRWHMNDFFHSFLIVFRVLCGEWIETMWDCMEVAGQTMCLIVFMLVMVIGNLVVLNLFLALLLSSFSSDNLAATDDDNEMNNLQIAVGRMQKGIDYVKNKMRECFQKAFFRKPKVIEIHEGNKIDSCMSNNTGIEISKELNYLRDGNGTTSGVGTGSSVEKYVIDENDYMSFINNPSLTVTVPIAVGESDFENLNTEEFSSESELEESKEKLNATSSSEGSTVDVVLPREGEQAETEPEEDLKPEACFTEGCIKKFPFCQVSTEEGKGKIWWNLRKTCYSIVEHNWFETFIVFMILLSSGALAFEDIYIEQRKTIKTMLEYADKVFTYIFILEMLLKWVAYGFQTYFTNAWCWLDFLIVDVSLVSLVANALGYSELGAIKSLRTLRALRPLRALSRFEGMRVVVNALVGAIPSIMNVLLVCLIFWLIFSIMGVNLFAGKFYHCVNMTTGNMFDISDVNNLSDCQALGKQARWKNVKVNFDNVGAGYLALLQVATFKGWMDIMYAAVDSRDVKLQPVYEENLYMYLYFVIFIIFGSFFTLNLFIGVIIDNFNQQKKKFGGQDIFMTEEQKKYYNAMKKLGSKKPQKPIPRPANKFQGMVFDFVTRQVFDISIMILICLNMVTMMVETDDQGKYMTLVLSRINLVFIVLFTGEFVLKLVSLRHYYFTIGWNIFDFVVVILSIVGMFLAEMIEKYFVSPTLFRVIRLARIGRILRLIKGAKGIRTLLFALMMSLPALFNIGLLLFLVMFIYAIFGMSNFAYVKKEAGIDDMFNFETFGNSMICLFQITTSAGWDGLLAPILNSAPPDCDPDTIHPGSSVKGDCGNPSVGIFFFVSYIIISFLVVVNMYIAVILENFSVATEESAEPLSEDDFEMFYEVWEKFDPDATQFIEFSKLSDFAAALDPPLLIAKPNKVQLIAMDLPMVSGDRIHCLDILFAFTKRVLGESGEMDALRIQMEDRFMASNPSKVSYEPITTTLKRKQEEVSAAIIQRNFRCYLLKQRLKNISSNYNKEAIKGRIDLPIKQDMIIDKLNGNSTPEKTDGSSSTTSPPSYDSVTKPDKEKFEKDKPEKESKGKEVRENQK

Compound | IC50 ([1]; Table 25) [nM] | IC50 ([2]; Table 25) [µM] | IC50 ([3]; Table 25) [nM] | IC50 ([1]; Table 26) [nM] | IC50 ([2]; Table 26) [µM] | IC50 ([3]; Table 26) [nM]
CC[C@H](C)[C@@H]1NC(=O)[C@@H]2CSSC[C@@H]3NC(=O)[C@H](C(C)C)NC(=O)[C@H](CC(C)C)NC(=O)[C@H](CC(N)=O)NC(=O)[C@@H]4CCCN4C(=O)[C@H](CCCNC(=N)N)NC(=O)[C@H](CSSC[C@H](NC(=O)[C@@H](N)CC(=O)O)C(=O)N[C@@H](CC(C)C)C(=O)NCC(=O)N[C@@H](Cc4ccccc4)C(=O)N[C@@H](CCSC)C(=O)N[C@@H](CCCNC(=N)N)C(=O)N[C@@H](CCCCN)C(=O)N2)NC(=O)[C@H](CSSC[C@@H](C(=O)N[C@@H](CCCCN)C(=O)N2CCC[C@H]2C(=O)N[C@H](C(=O)N[C@@H](Cc2ccccc2)C(N)=O)C(C)C)NC(=O)[C@H](Cc2c[nH]c4ccccc24)NC(=O)[C@H](CCCCN)NC(=O)[C@H](Cc2c[nH]cn2)NC(=O)[C@H]([C@@H](C)O)NC(=O)[C@H](CCCNC(=N)N)NC(=O)[C@H](CO)NC3=O)NC(=O)[C@H](CCCCN)NC(=O)[C@H](CC(=O)O)NC(=O)[C@H](CC(N)=O)NC(=O)[C@H](CC(=O)O)NC(=O)[C@@H]2CCCN2C1=O [compound 383] (H-DCLGFMRKCIPDNDKCCRPNLVCSRTHKWCKPVF-NH2; disulfide 2-17, 9-23, 16-30) | > 5000 | > 5 | > 5000 | – | – | –
CC[C@H](C)[C@@H]1NC(=O)[C@@H]2CSSC[C@@H]3NC(=O)[C@H](C(C)C)NC(=O)[C@H](CC(C)C)NC(=O)[C@H](CC(N)=O)NC(=O)[C@@H]4CCCN4C(=O)[C@H](CCCNC(=N)N)NC(=O)[C@H](CSSC[C@H](NC(=O)[C@@H](N)CC(=O)O)C(=O)N[C@@H](CC(C)C)C(=O)NCC(=O)N[C@@H](Cc4ccccc4)C(=O)N[C@@H](CCSC)C(=O)N[C@@H](CCCNC(=N)N)C(=O)N[C@@H](CCCCN)C(=O)N2)NC(=O)[C@H](CSSC[C@@H](C(=O)N[C@@H](CCCCN)C(=O)N[C@@H](Cc2ccccn2)C(=O)N[C@H](C(=O)N[C@@H](Cc2ccccc2)C(N)=O)C(C)C)NC(=O)[C@H](Cc2c[nH]c4ccccc24)NC(=O)[C@H](CCCCN)NC(=O)[C@H](Cc2c[nH]cn2)NC(=O)[C@H]([C@@H](C)O)NC(=O)[C@H](CCCNC(=N)N)NC(=O)[C@H](CO)NC3=O)NC(=O)[C@H](CCCCN)NC(=O)[C@H](CC(=O)O)NC(=O)[C@H](CC(N)=O)NC(=O)[C@H](CC(=O)O)NC(=O)[C@@H]2CCCN2C1=O [compound 384] (H-DCLGFMRKCIPDNDKCCRPNLVCSRTHKWCK[2Pal]VF-NH2; disulfide 2-17, 9-23, 16-30) | 810 | 7.65 | 660 | – | – | –
CC[C@H](C)[C@@H]1NC(=O)[C@@H]2CSSC[C@@H]3NC(=O)[C@H](C(C)C)NC(=O)[C@H](CC(C)C)NC(=O)[C@H](CC(N)=O)NC(=O)[C@@H]4CCCN4C(=O)[C@H](CCCNC(=N)N)NC(=O)[C@H](CSSC[C@H](NC(=O)[C@@H](N)CC(=O)O)C(=O)N[C@@H](CC(C)C)C(=O)NCC(=O)N[C@@H](Cc4ccccc4)C(=O)N[C@@H](CCSC)C(=O)N[C@@H](CCCNC(=N)N)C(=O)N[C@@H](CCCCN)C(=O)N2)NC(=O)[C@H](CSSC[C@@H](C(=O)N[C@@H](CCCCN)C(=O)N[C@@H](Cc2ccc(C(=O)O)cc2)C(=O)N[C@H](C(=O)N[C@@H](Cc2ccccc2)C(N)=O)C(C)C)NC(=O)[C@H](Cc2c[nH]c4ccccc24)NC(=O)[C@H](CCCCN)NC(=O)[C@H](Cc2c[nH]cn2)NC(=O)[C@H]([C@@H](C)O)NC(=O)[C@H](CCCNC(=N)N)NC(=O)[C@H](CO)NC3=O)NC(=O)[C@H](CCCCN)NC(=O)[C@H](CC(=O)O)NC(=O)[C@H](CC(N)=O)NC(=O)[C@H](CC(=O)O)NC(=O)[C@@H]2CCCN2C1=O [compound 385] (H-DCLGFMRKCIPDNDKCCRPNLVCSRTHKWCK[Phe(4-COOH)]VF-NH2; disulfide 2-17, 9-23, 16-30) | 11400 | 7.7 | 4050 | – | – | –
CC[C@H](C)[C@@H]1NC(=O)[C@@H]2CSSC[C@@H]3NC(=O)[C@H](C(C)C)NC(=O)[C@H](CC(C)C)NC(=O)[C@H](CC(N)=O)NC(=O)[C@@H]4CCCN4C(=O)[C@H](CCCNC(=N)N)NC(=O)[C@H](CSSC[C@H](NC(=O)[C@@H](N)CC(=O)O)C(=O)N[C@@H](CC(C)C)C(=O)NCC(=O)N[C@@H](Cc4ccccc4)C(=O)N[C@@H](CCSC)C(=O)N[C@@H](CCCNC(=N)N)C(=O)N[C@@H](CCCCN)C(=O)N2)NC(=O)[C@H](CSSC[C@@H](C(=O)N[C@@H](CCCCN)C(=O)N[C@@H](Cc2ccc(O)cc2)C(=O)N[C@@H](CC2CCCCC2)C(=O)N[C@@H](Cc2ccccc2)C(N)=O)NC(=O)[C@H](Cc2c[nH]c4ccccc24)NC(=O)[C@H](CCCCN)NC(=O)[C@H](Cc2c[nH]cn2)NC(=O)[C@H]([C@@H](C)O)NC(=O)[C@H](CCCNC(=N)N)NC(=O)[C@H](CO)NC3=O)NC(=O)[C@H](CCCCN)NC(=O)[C@H](CC(=O)O)NC(=O)[C@H](CC(N)=O)NC(=O)[C@H](CC(=O)O)NC(=O)[C@@H]2CCCN2C1=O [compound 386] (H-DCLGFMRKCIPDNDKCCRPNLVCSRTHKWCKY[Cha]F-NH2; disulfide 2-17, 9-23, 16-30) | – | – | – | 70 | 12.2 | 70
CC[C@H](C)[C@@H]1NC(=O)[C@@H]2CSSC[C@@H]3NC(=O)[C@H](C(C)C)NC(=O)[C@H](CC(C)C)NC(=O)[C@H](CC(N)=O)NC(=O)[C@@H]4CCCN4C(=O)[C@H](CCCNC(=N)N)NC(=O)[C@H](CSSC[C@H](NC(=O)[C@@H](N)CC(=O)O)C(=O)N[C@@H](CC(C)C)C(=O)NCC(=O)N[C@@H](Cc4ccccc4)C(=O)N[C@@H](CCSC)C(=O)N[C@@H](CCCNC(=N)N)C(=O)N[C@@H](CCCCN)C(=O)N2)NC(=O)[C@H](CSSC[C@@H](C(=O)N[C@@H](CCCCN)C(=O)N[C@@H](Cc2ccc(O)cc2)C(=O)N(C)[C@@H](Cc2ccccc2)C(=O)N[C@@H](Cc2ccccc2)C(N)=O)NC(=O)[C@H](Cc2c[nH]c4ccccc24)NC(=O)[C@H](CCCCN)NC(=O)[C@H](Cc2c[nH]cn2)NC(=O)[C@H]([C@@H](C)O)NC(=O)[C@H](CCCNC(=N)N)NC(=O)[C@H](CO)NC3=O)NC(=O)[C@H](CCCCN)NC(=O)[C@H](CC(=O)O)NC(=O)[C@H](CC(N)=O)NC(=O)[C@H](CC(=O)O)NC(=O)[C@@H]2CCCN2C1=O [compound 388] (H-DCLGFMRKCIPDNDKCCRPNLVCSRTHKWCKY[NMeF]F-NH2; disulfide 2-17, 9-23, 16-30) | – | – | – | 1280 | > 5 | 1090
CC[C@H](C)[C@@H]1NC(=O)[C@@H]2CSSC[C@@H]3NC(=O)[C@H](C(C)C)NC(=O)[C@H](CC(C)C)NC(=O)[C@H](CC(N)=O)NC(=O)[C@@H]4CCCN4C(=O)[C@H](CCCNC(=N)N)NC(=O)[C@H](CSSC[C@H](NC(=O)[C@@H](N)CC(=O)O)C(=O)N[C@@H](CC(C)C)C(=O)NCC(=O)N[C@@H](Cc4ccccc4)C(=O)N[C@@H](CCSC)C(=O)N[C@@H](CCCNC(=N)N)C(=O)N[C@@H](CCCCN)C(=O)N2)NC(=O)[C@H](CSSC[C@@H](C(=O)N[C@@H](CCCCN)C(=O)N[C@@H](Cc2ccc(O)cc2)C(=O)N(C)[C@@H](Cc2c[nH]c4ccccc24)C(=O)N[C@@H](Cc2ccccc2)C(N)=O)NC(=O)[C@H](Cc2c[nH]c4ccccc24)NC(=O)[C@H](CCCCN)NC(=O)[C@H](Cc2c[nH]cn2)NC(=O)[C@H]([C@@H](C)O)NC(=O)[C@H](CCCNC(=N)N)NC(=O)[C@H](CO)NC3=O)NC(=O)[C@H](CCCCN)NC(=O)[C@H](CC(=O)O)NC(=O)[C@H](CC(N)=O)NC(=O)[C@H](CC(=O)O)NC(=O)[C@@H]2CCCN2C1=O [compound 389] (H-DCLGFMRKCIPDNDKCCRPNLVCSRTHKWCKY[NMeW]F-NH2; disulfide 2-17, 9-23, 16-30) | – | – | – | 350 | > 5 | 290
CC[C@H](C)[C@@H]1NC(=O)[C@@H]2CSSC[C@@H]3NC(=O)[C@H](C(C)C)NC(=O)[C@H](CC(C)C)NC(=O)[C@H](CC(N)=O)NC(=O)[C@@H]4CCCN4C(=O)[C@H](CCCNC(=N)N)NC(=O)[C@H](CSSC[C@H](NC(=O)[C@@H](N)CC(=O)O)C(=O)N[C@@H](CC(C)C)C(=O)NCC(=O)N[C@@H](Cc4ccccc4)C(=O)N[C@@H](CCSC)C(=O)N[C@@H](CCCNC(=N)N)C(=O)N[C@@H](CCCCN)C(=O)N2)NC(=O)[C@H](CSSC[C@@H](C(=O)N[C@@H](CCCCN)C(=O)N[C@@H](Cc2ccc(O)cc2)C(=O)N[C@@H](Cc2ccccc2)C(=O)N[C@@H](Cc2ccccc2)C(N)=O)NC(=O)[C@H](Cc2c[nH]c4ccccc24)NC(=O)[C@H](CCCCN)NC(=O)[C@H](Cc2c[nH]cn2)NC(=O)[C@H]([C@@H](C)O)NC(=O)[C@H](CCCNC(=N)N)NC(=O)[C@H](CO)NC3=O)NC(=O)[C@H](CCCCN)NC(=O)[C@H](CC(=O)O)NC(=O)[C@H](CC(N)=O)NC(=O)[C@H](CC(=O)O)NC(=O)[C@@H]2CCCN2C1=O [compound 390] (H-DCLGFMRKCIPDNDKCCRPNLVCSRTHKWCKYFF-NH2; disulfide 2-17, 9-23, 16-30) | – | – | – | 60 | 8.66 | 40
CC[C@H](C)[C@@H]1NC(=O)[C@@H]2CSSC[C@@H]3NC(=O)[C@H](C(C)C)NC(=O)[C@H](CC(C)C)NC(=O)[C@H](CC(N)=O)NC(=O)[C@@H]4CCCN4C(=O)[C@H](CCCNC(=N)N)NC(=O)[C@H](CSSC[C@H](NC(=O)[C@@H](N)CC(=O)O)C(=O)N[C@@H](CC(C)C)C(=O)NCC(=O)N[C@@H](Cc4ccccc4)C(=O)N[C@@H](CCSC)C(=O)N[C@@H](CCCNC(=N)N)C(=O)N[C@@H](CCCCN)C(=O)N2)NC(=O)[C@H](CSSC[C@@H](C(=O)N[C@@H](CCCCN)C(=O)N[C@@H](Cc2ccc(O)cc2)C(=O)N[C@@H](CCSC)C(=O)N[C@@H](Cc2ccccc2)C(N)=O)NC(=O)[C@H](Cc2c[nH]c4ccccc24)NC(=O)[C@H](CCCCN)NC(=O)[C@H](Cc2c[nH]cn2)NC(=O)[C@H]([C@@H](C)O)NC(=O)[C@H](CCCNC(=N)N)NC(=O)[C@H](CO)NC3=O)NC(=O)[C@H](CCCCN)NC(=O)[C@H](CC(=O)O)NC(=O)[C@H](CC(N)=O)NC(=O)[C@H](CC(=O)O)NC(=O)[C@@H]2CCCN2C1=O [compound 391] (H-DCLGFMRKCIPDNDKCCRPNLVCSRTHKWCKYMF-NH2; disulfide 2-17, 9-23, 16-30) | – | – | – | 70 | 15.1 | 80
